# Measured values: patent US20250163057A1, “DCN-1 MODULATING COMPOUNDS AND METHODS OF USE THEREOF” (Cellarity, Inc., priority 2023, published 2025)
# Target: DCN1 protein (Homo sapiens (Human), UniProt Q96GG9)
# Assay: Intact Protein MS Analysis with the RapidFire-TOF System (covalent adduct formation)
# Assay type: binding
# Settings: MS Emax; 400 nM DCN1, 3 hours at room temperature
# Experimental: An MS assay was performed to evaluate the ability of the compounds to covalently modify DCN-1.
# DCN1 protein, His-TEV-DCN1, were expressed in E. Coli. The His-tagged protein was first purified with an Ni-NTA column. The His-tag was cleaved using His-tag TEV protease and the His-tags were removed using a second Ni-NTA column. Protein purity was verified with SDS-PAGE and intact MS. DCN1 was dissolved in a buffer containing 25 mM Tris-HCl, 200 mM NaCl, and 1 mM DTT at 400 nM. 11 concentrations of compounds were added to the DCN1 solution and incubated at room temperature for 3 hours, unless otherwise specified. The reaction plates were quenched by adding 0.2% formic acid. […] The cartridge was re-equilibrated with loading buffer for 1 second before collection of the next sample. The Q-TOF was operated in TOF-only positive ionization mode set to the following parameters: Gas Temp=350 C, Drying Gas=7 l/min, Nebulizer=50 psi, Sheath Gas Temp=400 C, Sheath Gas Flow=12 l/min, Vcap=4000 V, Nozzle Voltage=1000 V, Fragmentor=125 V, Skimmer=65 V and Oct 1 RF Vpp=750V. Raw MS data files were deconvoluted and analyzed using the Agilent MassHunter Bioconfirm software package to identify both parent protein and expected compound adduct mass signatures.
# DCN1 protein, sequence (Q96GG9 whole entry): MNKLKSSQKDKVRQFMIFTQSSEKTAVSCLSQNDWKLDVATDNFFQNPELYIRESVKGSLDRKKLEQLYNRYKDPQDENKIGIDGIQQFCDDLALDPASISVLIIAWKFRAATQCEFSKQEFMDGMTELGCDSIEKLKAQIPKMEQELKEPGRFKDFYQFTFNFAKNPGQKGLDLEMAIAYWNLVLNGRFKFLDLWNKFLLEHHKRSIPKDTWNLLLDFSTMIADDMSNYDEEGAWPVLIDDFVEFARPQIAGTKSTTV
compound,measurement,value
CCN1C(=O)[C@@H](NC(=O)c2cccc(C(F)(F)F)c2)[C@@H](c2ccc(F)cc2)c2c([C@@H](C)NC(=O)/C=C/C(F)(F)F)nn(-c3ccccc3)c21 (mixture of isomers) [Compound I-164],% Adduct Formation,+ (MS Emax % adduct formation greater than or equal to 0.0 and less than or equal to 30.0)
C=C(C)C(=O)N[C@H](C)c1nn(-c2ccccc2)c2c1[C@H](c1ccc(F)cc1)[C@H](NC(=O)c1cccc(C(F)(F)F)c1)C(=O)N2CC (mixture of isomers) [Compound I-191],% Adduct Formation,+ (MS Emax % adduct formation greater than or equal to 0.0 and less than or equal to 30.0)
"CCN1C(=O)[C@H](NC(=O)c2cccc(C(F)(F)F)c2)[C@@H](c2ccc(F)cc2)c2c(C3CO3)nn(-c3ccccc3)c21 (relative stereo) [Compound I-207, N-((4RS,5SR)-7-ethyl-4-(4-fluorophenyl)-3-((S*)-oxiran-2-yl)-6-oxo-1-phenyl-4,5,6,7-tetrahydro-1H-pyrazolo[3,4-b]pyridine-5-yl)-3-(trifluoromethyl)benzamide]",% Adduct Formation,+ (MS Emax % adduct formation greater than or equal to 0.0 and less than or equal to 30.0)
CCN1C(=O)[C@@H](NC(=O)c2cccc(C(F)(F)F)c2)[C@@H](c2ccc(F)cc2)c2c(CN3CC=CC3=O)nn(-c3ccccc3)c21 (racemic) [Compound I-193],% Adduct Formation,+ (MS Emax % adduct formation greater than or equal to 0.0 and less than or equal to 30.0)
CCN1C(=O)[C@@H](NC(=O)c2cccc(C(F)(F)F)c2)[C@@H](c2ccc(F)cc2)c2c(CNC(=O)CCl)nn(-c3ccccc3)c21 (racemic) [Compound I-229],% Adduct Formation,+ (MS Emax % adduct formation greater than or equal to 0.0 and less than or equal to 30.0)
CCN1C(=O)[C@@H](NC(=O)c2cccc(C(F)(F)F)c2)[C@@H](c2ccc(F)cc2)c2c([C@@H](C)NC(=O)/C=C/CN(C)C)nn(-c3ccccc3)c21 (mixture of isomers) [Compound I-210],% Adduct Formation,+ (MS Emax % adduct formation greater than or equal to 0.0 and less than or equal to 30.0)
C/C=C/C(=O)N[C@H](C)c1nn(-c2ccccc2)c2c1[C@H](c1ccc(F)cc1)[C@H](NC(=O)c1cccc(C(F)(F)F)c1)C(=O)N2CC (mixture of isomers) [Compound I-238],% Adduct Formation,+ (MS Emax % adduct formation greater than or equal to 0.0 and less than or equal to 30.0)
"CCN1C(=O)[C@@H](NC(=O)c2cccc(C(F)(F)F)c2)[C@@H](c2ccc(F)cc2)c2c(N3C=CC3=O)nn(-c3ccccc3)c21 (racemic) [Compound I-194, N-((4S,5S)-7-ethyl-4-(4-fluorophenyl)-6-oxo-3-(2-oxoazet-1(2H)-yl)-1-phenyl-4,5,6,7-tetrahydro-1H-pyrazolo[3,4-b]pyridine-5-yl)-3-(trifluoromethyl)benzamide]",% Adduct Formation,+ (MS Emax % adduct formation greater than or equal to 0.0 and less than or equal to 30.0)
CCN1C(=O)[C@@H](NC(=O)c2cccc(C(F)(F)F)c2)[C@@H](c2ccc(F)cc2)c2c(CNC(=O)COc3c(F)c(F)cc(F)c3F)nn(-c3ccccc3)c21 (racemic) [Compound I-182],% Adduct Formation,+ (MS Emax % adduct formation greater than or equal to 0.0 and less than or equal to 30.0)
CCN1C(=O)[C@@H](NC(=O)c2cccc(C(F)(F)F)c2)[C@@H](c2ccc(F)cc2)c2c(CNC(=O)C(F)Cl)nn(-c3ccccc3)c21 (stereo in doubt) [Compound I-205],% Adduct Formation,+ (MS Emax % adduct formation greater than or equal to 0.0 and less than or equal to 30.0)
C/C=C/C(=O)N(C)Cc1nn(-c2ccccc2)c2c1[C@H](c1ccc(F)cc1)[C@H](NC(=O)c1cccc(C(F)(F)F)c1)C(=O)N2CC (racemic) [Compound I-234],% Adduct Formation,+ (MS Emax % adduct formation greater than or equal to 0.0 and less than or equal to 30.0)
CCN1C(=O)[C@@H](NC(=O)c2cccc(C(F)(F)F)c2)[C@@H](c2ccc(F)cc2)c2c([C@H](C)NC(=O)C(C)Cl)nn(-c3ccccc3)c21 (mixture of isomers) [Compound I-211],% Adduct Formation,+ (MS Emax % adduct formation greater than or equal to 0.0 and less than or equal to 30.0)
"CCN1C(=O)[C@@H](NC(=O)c2cccc(C(F)(F)F)c2)[C@@H](c2ccc(F)cc2)c2c(C=O)nn(-c3ccccc3)c21 (racemic) [Compound I-189, rac-N-((4R,5R)-7-ethyl-4-(4-fluorophenyl)-3-formyl-6-oxo-1-phenyl-4,5,6,7-tetrahydro-1H-pyrazolo[3,4-b]pyridine-5-yl)-3-(trifluoromethyl)benzamide]",% Adduct Formation,+ (MS Emax % adduct formation greater than or equal to 0.0 and less than or equal to 30.0)
CCN1C(=O)[C@@H](NC(=O)c2cccc(C(F)(F)F)c2)[C@@H](c2ccc(F)cc2)c2c(CNS(=O)(=O)CCl)nn(-c3ccccc3)c21 (racemic) [Compound I-198],% Adduct Formation,+ (MS Emax % adduct formation greater than or equal to 0.0 and less than or equal to 30.0)
C=CC(=O)N[C@H](C)c1nn(-c2ccccc2)c2c1[C@H](c1ccc(F)cc1)[C@H](NC(=O)c1cccc(C(F)(F)F)c1)C(=O)N2CC (mixture of isomers) [Compound I-174],% Adduct Formation,+ (MS Emax % adduct formation greater than or equal to 0.0 and less than or equal to 30.0)
CCN1C(=O)[C@@H](NC(=O)c2cccc(C(F)(F)F)c2)[C@@H](c2ccc(F)cc2)c2c(CNC(=O)C3=CCCC3)nn(-c3ccccc3)c21 (racemic) [Compound I-232],% Adduct Formation,+ (MS Emax % adduct formation greater than or equal to 0.0 and less than or equal to 30.0)
C=C(CN(C)C)C(=O)N[C@H](C)c1nn(-c2ccccc2)c2c1[C@H](c1ccc(F)cc1)[C@H](NC(=O)c1cccc(C(F)(F)F)c1)C(=O)N2CC (mixture of isomers) [Compound I-213],% Adduct Formation,+++ (MS Emax % adduct formation greater than 80.0 and less than or equal to 100.0)
CCN1C(=O)[C@@H](NC(=O)c2cccc(C(F)(F)F)c2)[C@@H](c2ccc(F)cc2)c2c([C@@H](C)NC(=O)C(C)Cl)nn(-c3ccccc3)c21 (stereo in doubt) [Compound I-212],% Adduct Formation,+ (MS Emax % adduct formation greater than or equal to 0.0 and less than or equal to 30.0)
"CCN1C(=O)[C@@H](NC(=O)c2cccc(C(F)(F)F)c2)[C@@H](c2ccc(F)cc2)c2c(C3CO3)nn(-c3ccccc3)c21 (relative stereo) [Compound I-196, N-((4RS,5RS)-7-ethyl-4-(4-fluorophenyl)-3-((S*)-oxiran-2-yl)-6-oxo-1-phenyl-4,5,6,7-tetrahydro-1H-pyrazolo[3,4-b]pyridine-5-yl)-3-(trifluoromethyl)benzamide]",% Adduct Formation,+ (MS Emax % adduct formation greater than or equal to 0.0 and less than or equal to 30.0)
"CC#Cc1nn(-c2ccccc2)c2c1[C@H](c1ccc(F)cc1)[C@H](NC(=O)c1cccc(C(F)(F)F)c1)C(=O)N2CC (racemic) [Compound I-225, rac-N-((4R,5R)-7-ethyl-4-(4-fluorophenyl)-6-oxo-1-phenyl-3-(prop-1-yn-1-yl)-4,5,6,7-tetrahydro-1H-pyrazolo[3,4-b]pyridine-5-yl)-3-(trifluoromethyl)benzamide]",% Adduct Formation,+ (MS Emax % adduct formation greater than or equal to 0.0 and less than or equal to 30.0)
CCN1C(=O)[C@@H](NC(=O)c2cccc(C(F)(F)F)c2)[C@@H](c2ccc(F)cc2)c2c([C@@H](C)NC(=O)C(F)Cl)nn(-c3ccccc3)c21 (stereo in doubt) [Compound I-239],% Adduct Formation,+ (MS Emax % adduct formation greater than or equal to 0.0 and less than or equal to 30.0)
CCN1C(=O)[C@@H](NC(=O)c2cccc(C(F)(F)F)c2)[C@@H](c2ccc(F)cc2)c2c(CN(C)C(=O)C3=CCC3)nn(-c3ccccc3)c21 (racemic) [Compound I-200],% Adduct Formation,+ (MS Emax % adduct formation greater than or equal to 0.0 and less than or equal to 30.0)
"C#Cc1nn(-c2ccccc2)c2c1[C@H](c1ccc(F)cc1)[C@@H](NC(=O)c1cccc(C(F)(F)F)c1)C(=O)N2CC (racemic) [Compound I-235, N-((4S,5R)-7-ethyl-3-ethynyl-4-(4-fluorophenyl)-6-oxo-1-phenyl-4,5,6,7-tetrahydro-1H-pyrazolo[3,4-b]pyridine-5-yl)-3-(trifluoromethyl)benzamide]",% Adduct Formation,+ (MS Emax % adduct formation greater than or equal to 0.0 and less than or equal to 30.0)
CCN1C(=O)[C@@H](NC(=O)c2cccc(C(F)(F)F)c2)[C@@H](c2ccc(F)cc2)c2c(CN(C)C(=O)/C=C/C(F)(F)F)nn(-c3ccccc3)c21 (racemic) [Compound I-219],% Adduct Formation,+ (MS Emax % adduct formation greater than or equal to 0.0 and less than or equal to 30.0)
CCN1C(=O)[C@@H](NC(=O)c2cccc(C(F)(F)F)c2)[C@@H](c2ccc(F)cc2)c2c([C@H](C)NS(=O)(=O)CCl)nn(-c3ccccc3)c21 (racemic) [Compound I-214],% Adduct Formation,+ (MS Emax % adduct formation greater than or equal to 0.0 and less than or equal to 30.0)
